Measured values as given in patent US12161637B2, “Anti-cancer gold complex, process of synthesis and method of treatment thereof” (King Saud University, priority 2022, dated 2024).
Like-named read-outs stand apart in the source and are kept apart here.

How the values were obtained:
Format in all cases: cell-based
[1] = test system: MCF-7 breast cancer cells; assay: Cell viability by MTT assay; settings: read-out: IC50, cell viability (cytotoxicity)
Description: Materials and methods: All organic ligands were purchased from Sigma-Aldrich and gold salts from Strom Chemicals USA. Breast cancer cell lines MCF-7 were obtained from American Type Culture Collection, ATCC (Virginia, USA). Dulbecco's Modified Eagle's Medium (DMEM), Fetal Bovine Serum (FBS), and 0.25% Trypsin 0.1% EDTA were obtained from Gibco (Grand Island, NY). The 3-(4,5-dimethylthiazol-2-yl)-2,5-diphenyltetrazolium bromide (MTT) and DMSO were purchased from Sigma-Aldrich (St. Louis, MO).
Cell viability was determined by 3-(4,5-dimethylthiazol-2-yl)-2,5-diphenyltetrazolium bromide (MTT) assay. Breast cancer cells, MCF-7, were seeded in a 96-well tissue culture plate at 10,000 cells/well in 200 μl of DMEM. […] Then, 20 μl of MTT (5 mg/mL) was added to the each well and incubated in a CO2 incubator at 37° C. in the dark for 3 h. After incubation, a purple-colored formazan dye is produced and appeared as dark crystals in the bottom of the wells. To dissolve the formazan crystals, the culture medium was discarded and 100 μL of isopropanol were added to each well. The absorbance was recorded at 570 nm against reagent blank. The cell viability was calculated by the formula below: Cell viability (%)=[Absorbance Compound/Absorbance DMSO]*100

[2] = test system: MCF-7 cells; assay: Oxidative stress analysis (ROS generation), Muse Oxidative Stress Kit, flow cytometry; settings: 24 h
Procedure: The induction of oxidative stress via ROS generation endogenously in cancer cells is a potential target of anticancer agents. Oxidative stress causes irreversible cellular damage which induces apoptosis in concentration-dependent manner. MCF-7 cells were plated at 1.5×10^4 cells/well using a 6 well plate to estimate the generation of reactive oxygen species (ROS). […] DMSO was used as a negative control. The final DMSO concentration in each well was less than 0.1%. Then, the cells were harvested and stained with Muse® Oxidative Stress Kit (Luminex, IL, USA) following the manufacture's protocol. The percentage of cells that were undergoing oxidative stress was measured by flow cytometry.

[3] = test system: MCF-7 cells; assay: Mitochondrial membrane potential analysis, Muse MitoPotential Kit, flow cytometry; settings: for percentage of depolarized cancer cells (mitochondrial membrane potential): 24 h
Procedure: Mitochondrial membrane potential is an important parameter to assess the integrity of mitochondria, which is a potential target in cancer therapeutics. The loss of mitochondrial membrane potential has been known to be associated with early stages of apoptosis and reactive oxygen species (ROS) induction. To assess the mitochondrial membrane potential, Muse® MitoPotential Kit (Luminex, IL, USA) was used. MCF-7 cells were seeded in a 6 well plate at 1.5×10^4 cells/well. […] DMSO was used as a negative control. The final DMSO concentration in each well was less than 0.1%. Then, cells were stained with MitoPotential reagents following the manufacture's protocol. The percentage of depolarized/live cells was estimated by flow cytometry.

[4] = test system: MCF-7 breast cancer cell line; assay: Apoptosis analysis, Muse Annexin V Live & Dead Cell Kit, flow cytometry; settings: 24 h, versus control
Procedure: MCF-7 cells were seeded in 6 well plates at 1.5×10^4 cells per well. […] DMSO was used as a negative control. The final DMSO concentration in each well was less than 0.1%. The harvested cells were stained with Annexin V-FITC and Dead Cell reagent following the manufacture's protocol. Then, the percentage of apoptotic cells was estimated by flow cytometry.

[5] = MCF-7, higher concentration (5 μM)
[6] = MCF-7, lower concentration (1 μM)

| SMILES | IC50 ([1]; MCF-7, 24 h treatment) [nM] | ROS generation ([2]; MCF-7, 1 μM) [%] | ROS generation ([2]; MCF-7, 5 μM) [%] | mitochondrial membrane potential depolarization compared to positive control Sorafenib ([3]; MCF-7, 24 h) | percentage of depolarized cancer cells (mitochondrial membrane potential) [3, 5] [%] | percentage of depolarized cancer cells (mitochondrial membrane potential) [3, 6] [%] | induction of apoptosis (early and late combined) ([4]; MCF-7, 1 μM) [folds] | induction of apoptosis (early and late combined) ([4]; MCF-7, 3 μM) [folds] | induction of apoptosis (early and late combined) ([4]; MCF-7, 10 μM) [folds] | IC50 ([1]; Homo sapiens, MCF7, MCF-7, 24 h treatment) [nM] |
| --- | --- | --- | --- | --- | --- | --- | --- | --- | --- | --- |
| O=Cc1ccnc(-c2cc(C=O)ccn2)c1.S=C([S][Au+2])N(Cc1ccccc1)Cc1ccccc1 [DDBDG, dibenzyldithiocarbamato-2,2′-bipyridine-4,4′-dicarboxaldehyde gold (III)] | 875 | 125.53 | 103.47 | roughly three-folds higher | 27.8 | 27.0 | 2.2 | 4.4 | 5.5 |  |
| CNC(=O)c1cc(Oc2ccc(NC(=O)Nc3ccc(Cl)c(C(F)(F)F)c3)cc2)ccn1 [Sorafenib, reference compound] |  | 73.76 | 122.11 |  | 12.0 | 2.7 |  |  |  | 4440 |
